# Measured values as given in US10710986B2, “PD-1/PD-L1 inhibitors” (Gilead Sciences, Inc., priority 2018, dated 2020).
# Biological target: PD-1/PD-L1 (Homo sapiens (Human), UniProt Q9NZQ7)
# Assay: PD-1/PD-L1 biochemical protein-protein interaction assay (ALPHA)
# Conditions: 0.3 nM His tagged PD-L1, 2.5 nM biotinylated Fc-PD-1, 60 minutes at 25° C., read-out: IC50 PD-L1-PD1
# Procedure: Binding of the protein pairs is measured using a bead based Amplified Luminescent Proximity Homogeneous Assay (ALPHA) platform. Binding of each protein pair results in proximity of the donor and acceptor beads which leads to an increase in ALPHA signal. […] Assays are performed in 25 mM Hepes (pH 7.4), 150 mM NaCl, 3.4 mM EDTA, 0.005% Tween 20, and 0.01% BSA. […] After an assay reaction time of 60 minutes at 25° C., binding was measured with addition of 20 μg/mL ALPHA assay acceptor beads (anti-His coated) and 20 µg/mL ALPHA assay donor beads (streptavidin coated). IC50 values were calculated from the fit of the dose-response curves to a four-parameter equation.
# PD-1/PD-L1, sequence (Q9NZQ7 19-238): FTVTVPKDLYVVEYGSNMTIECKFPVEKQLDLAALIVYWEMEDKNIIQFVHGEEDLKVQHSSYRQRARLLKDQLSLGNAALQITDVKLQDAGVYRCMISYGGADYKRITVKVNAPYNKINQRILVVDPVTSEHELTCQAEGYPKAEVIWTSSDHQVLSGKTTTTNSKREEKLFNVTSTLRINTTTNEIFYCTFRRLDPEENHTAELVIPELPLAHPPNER
row,IC50 [nM],SMILES
1,0.09,COc1nc(-c2cccc(-c3cccc(-c4cnc(CNC[C@@H]5CCC(=O)N5)c(OC)n4)c3Cl)c2Cl)cnc1CNCC1CCC(C(N)=O)O1 (some centres unmarked) [compound 56]
2,8.78,CNc1nc(-c2cccc(-c3cccc(-c4cnc(CNC[C@H]5C[C@H](O)C5)c(NC)n4)c3Cl)c2Cl)cnc1CNC[C@H]1C[C@H](O)C1 [compound 57]
3,6.76,CNc1nc(-c2cccc(-c3cccc(-c4cnc(CN)c(NC)n4)c3Cl)c2Cl)cnc1CN [compound 58]
4,0.1,CNc1nc(-c2cccc(-c3cccc(-c4cnc(CN5CC6(C5)CN(C(C)=O)C6)c(OC)n4)c3Cl)c2Cl)cnc1CN1CC2(C1)CN(C(C)=O)C2 [compound 59]
5,0.14,CNc1nc(-c2cccc(-c3cccc(-c4cnc(CN5CC(O)C5)c(OC)n4)c3Cl)c2Cl)cnc1CN1CC(O)C1 [compound 60]
6,0.07,CNc1nc(-c2cccc(-c3cccc(-c4cnc(CN5CC6(CNC(=O)C6)C5)c(OC)n4)c3Cl)c2Cl)cnc1CN1CC2(CNC(=O)C2)C1 [compound 61]
7,0.16,CNc1nc(-c2cccc(-c3cccc(-c4cnc(CN5CC6(CCC(=O)N6)C5)c(OC)n4)c3Cl)c2Cl)cnc1CN1CC2(CCC(=O)N2)C1 [compound 62]
8,2.99,CNc1nc(-c2cccc(-c3cccc(-c4cnc(CNC[C@@H]5CCC(=O)N5)c(OC)n4)c3Cl)c2Cl)cnc1CNC[C@@H]1CCC(=O)N1 [compound 63]
9,0.165,CCNc1nc(-c2cccc(-c3cccc(-c4cnc(CN5CC6(C5)CN(C(C)=O)C6)c(NCC)n4)c3Cl)c2Cl)cnc1CN1CC2(C1)CN(C(C)=O)C2 [compound 65]
10,0.61,CCNc1nc(-c2cccc(-c3cccc(-c4cnc(CN5CC(O)C5)c(NCC)n4)c3Cl)c2Cl)cnc1CN1CC(O)C1 [compound 66]
11,0.292,CCNc1nc(-c2cccc(-c3cccc(-c4cnc(CN5CC6(CNC(=O)C6)C5)c(NCC)n4)c3Cl)c2Cl)cnc1CN1CC2(CNC(=O)C2)C1 [compound 67]
12,0.403,CCNc1nc(-c2cccc(-c3cccc(-c4cnc(CN5CC6(CCC(=O)N6)C5)c(NCC)n4)c3Cl)c2Cl)cnc1CN1CC2(CCC(=O)N2)C1 [compound 68]
13,2.62,CNc1nc(-c2cccc(-c3cccc(-c4cnc(CN5CC(F)C5)c(NC)n4)c3Cl)c2Cl)cnc1CN1CC(F)C1 [compound 69]
14,0.784,CNc1nc(-c2cccc(-c3cccc(-c4cnc(CN5CCCC5)c(NC)n4)c3Cl)c2Cl)cnc1CN1CCCC1 [compound 70]
15,0.081,CNc1nc(-c2cccc(-c3cccc(-c4cnc(CN(C)C)c(NC)n4)c3Cl)c2Cl)cnc1CN(C)C [compound 71]
16,0.198,CNc1nc(-c2cccc(-c3cccc(-c4cnc(CN5CCC5)c(NC)n4)c3Cl)c2Cl)cnc1CN1CCC1 [compound 72]
17,0.37,CNCc1ncc(-c2cccc(-c3cccc(-c4cnc(CN5CCC5)c(NC)n4)c3Cl)c2Cl)nc1NC [compound 73]
18,1.34,CNCc1ncc(-c2cccc(-c3cccc(-c4cnc(CNC)c(NC)n4)c3Cl)c2Cl)nc1NC [compound 74]
19,0.877,CNc1nc(-c2cccc(-c3cccc(-c4cnc(CN5CC(OC)C5)c(NC)n4)c3Cl)c2Cl)cnc1CN1CC(OC)C1 [compound 75]

row,IC50 [nM],SMILES
1,0.09,CNc1nc(-c2cccc(-c3cccc(-c4cnc(CN5CC6(C5)CN(C(C)=O)C6)c(NC)n4)c3Cl)c2Cl)cnc1CN1CC2(C1)CN(C(C)=O)C2 [compound 76]
2,0.192,CNc1nc(-c2cccc(-c3cccc(-c4cnc(CN5CC(O)C5)c(NC)n4)c3Cl)c2Cl)cnc1CN1CC(O)C1 [compound 77]
3,0.064,CNc1nc(-c2cccc(-c3cccc(-c4cnc(CN5CC6(CNC(=O)C6)C5)c(NC)n4)c3Cl)c2Cl)cnc1CN1CC2(CNC(=O)C2)C1 [compound 78]
4,0.292,CNc1nc(-c2cccc(-c3cccc(-c4cnc(CN5CC6(CCC(=O)N6)C5)c(NC)n4)c3Cl)c2Cl)cnc1CN1CC2(CCC(=O)N2)C1 [compound 79]
5,0.36,CNc1nc(-c2cccc(-c3cccc(-c4cnc(CNC[C@@H]5CCC(=O)N5)c(NC)n4)c3Cl)c2Cl)cnc1CNC[C@@H]1CCC(=O)N1 [compound 80]
6,4.18,OC1CN(Cc2cnc(-c3cccc(-c4cccc(-c5cnc(CN6CC(O)C6)cn5)c4Cl)c3Cl)cn2)C1 [compound 81]
7,0.335,CCc1nc(-c2cccc(-c3cccc(-c4cnc(CN5CC(O)C5)c(CC)n4)c3Cl)c2Cl)cnc1CN1CC(O)C1 [compound 82]
8,0.56,CCc1nc(-c2cccc(-c3cccc(-c4cnc(CN5CC6(CNC(=O)C6)C5)c(CC)n4)c3Cl)c2Cl)cnc1CN1CC2(CNC(=O)C2)C1 [compound 83]
9,0.189,CCc1nc(-c2cccc(-c3cccc(-c4cnc(CN5CC6(CCC(=O)N6)C5)c(CC)n4)c3Cl)c2Cl)cnc1CN1CC2(CCC(=O)N2)C1 [compound 84]
10,0.976,CCc1nc(-c2cccc(-c3cccc(-c4cnc(CNC[C@@H]5CCC(=O)N5)c(CC)n4)c3Cl)c2Cl)cnc1CNC[C@@H]1CCC(=O)N1 [compound 85]
11,3.05,COc1nc(-c2cccc(-c3cccc(-c4cnc(CNC56CC(C5)C6)c(OC)n4)c3Cl)c2Cl)cnc1CNC12CC(C1)C2 [compound 86]
12,5.88,COC1CN(Cc2ncc(-c3cccc(-c4cccc(-c5cnc(CN6CC(OC)C6)c(SC)n5)c4Cl)c3Cl)nc2SC)C1 [compound 87]
13,0.217,CSc1nc(-c2cccc(-c3cccc(-c4cnc(CN5CC(O)C5)c(SC)n4)c3Cl)c2Cl)cnc1CN1CC(O)C1 [compound 88]
14,0.286,CSc1nc(-c2cccc(-c3cccc(-c4cnc(CN5CC6(CNC(=O)C6)C5)c(SC)n4)c3Cl)c2Cl)cnc1CN1CC2(CNC(=O)C2)C1 [compound 89]
15,0.156,CSc1nc(-c2cccc(-c3cccc(-c4cnc(CN5CC6(CCC(=O)N6)C5)c(SC)n4)c3Cl)c2Cl)cnc1CN1CC2(CCC(=O)N2)C1 [compound 90]
16,0.978,CSc1nc(-c2cccc(-c3cccc(-c4cnc(CNC[C@@H]5CCC(=O)N5)c(SC)n4)c3Cl)c2Cl)cnc1CNC[C@@H]1CCC(=O)N1 [compound 91]
17,1.03,COC1CN(Cc2ncc(-c3cccc(-c4cccc(-c5cnc(CN6CC(OC)C6)c(C)n5)c4Cl)c3Cl)nc2C)C1 [compound 92]
18,0.566,Cc1nc(-c2cccc(-c3cccc(-c4cnc(CN5CC(O)C5)c(C)n4)c3Cl)c2Cl)cnc1CN1CC(O)C1 [compound 93]
19,0.862,Cc1nc(-c2cccc(-c3cccc(-c4cnc(CN5CC6(CNC(=O)C6)C5)c(C)n4)c3Cl)c2Cl)cnc1CN1CC2(CNC(=O)C2)C1 [compound 94]

row,IC50 [nM],SMILES
1,0.233,Cc1nc(-c2cccc(-c3cccc(-c4cnc(CN5CC6(CCC(=O)N6)C5)c(C)n4)c3Cl)c2Cl)cnc1CN1CC2(CCC(=O)N2)C1 [compound 95]
2,1.5,Cc1nc(-c2cccc(-c3cccc(-c4cnc(CNC[C@@H]5CCC(=O)N5)c(C)n4)c3Cl)c2Cl)cnc1CNC[C@@H]1CCC(=O)N1 [compound 96]
3,0.701,COC1CN(Cc2ncc(-c3cccc(-c4cccc(-c5cnc(CN6CC(OC)C6)c(N(C)C)n5)c4Cl)c3Cl)nc2N(C)C)C1 [compound 97]
4,0.647,COC1CN(Cc2ncc(-c3cccc(-c4cccc(-c5cnc(CN6CC(OC)C6)c(N(C)C)n5)c4Cl)c3Cl)nc2Cl)C1 [compound 98]
5,0.407,CN(C)c1nc(-c2cccc(-c3cccc(-c4cnc(CN5CC(O)C5)c(N(C)C)n4)c3Cl)c2Cl)cnc1CN1CC(O)C1 [compound 99]
6,0.146,CN(C)c1nc(-c2cccc(-c3cccc(-c4cnc(CN5CC(O)C5)c(Cl)n4)c3Cl)c2Cl)cnc1CN1CC(O)C1 [compound 100]
7,0.13,CN(C)c1nc(-c2cccc(-c3cccc(-c4cnc(CN5CC6(CNC(=O)C6)C5)c(N(C)C)n4)c3Cl)c2Cl)cnc1CN1CC2(CNC(=O)C2)C1 [compound 101]
8,0.223,CN(C)c1nc(-c2cccc(-c3cccc(-c4cnc(CN5CC6(CNC(=O)C6)C5)c(Cl)n4)c3Cl)c2Cl)cnc1CN1CC2(CNC(=O)C2)C1 [compound 102]
9,0.071,CN(C)c1nc(-c2cccc(-c3cccc(-c4cnc(CN5CC6(CCC(=O)N6)C5)c(N(C)C)n4)c3Cl)c2Cl)cnc1CN1CC2(CCC(=O)N2)C1 [compound 103]
10,0.077,CN(C)c1nc(-c2cccc(-c3cccc(-c4cnc(CN5CC6(CCC(=O)N6)C5)c(Cl)n4)c3Cl)c2Cl)cnc1CN1CC2(CCC(=O)N2)C1 [compound 104]
11,0.302,CN(C)c1nc(-c2cccc(-c3cccc(-c4cnc(CNC[C@@H]5CCC(=O)N5)c(N(C)C)n4)c3Cl)c2Cl)cnc1CNC[C@@H]1CCC(=O)N1 [compound 105]
12,0.36,CN(C)c1nc(-c2cccc(-c3cccc(-c4cnc(CNC[C@@H]5CCC(=O)N5)c(Cl)n4)c3Cl)c2Cl)cnc1CNC[C@@H]1CCC(=O)N1 [compound 106]
13,1.54,COC1CN(Cc2ncc(-c3cccc(-c4cccc(-c5cnc(CN6CC(OC)C6)c(Cl)n5)c4Cl)c3Cl)nc2Cl)C1 [compound 107]
14,0.474,OC1CN(Cc2ncc(-c3cccc(-c4cccc(-c5cnc(CN6CC(O)C6)c(Cl)n5)c4Cl)c3Cl)nc2Cl)C1 [compound 108]
15,0.586,O=C1CC2(CN1)CN(Cc1ncc(-c3cccc(-c4cccc(-c5cnc(CN6CC7(CNC(=O)C7)C6)c(Cl)n5)c4Cl)c3Cl)nc1Cl)C2 [compound 109]
16,0.327,O=C1CCC2(CN(Cc3ncc(-c4cccc(-c5cccc(-c6cnc(CN7CC8(CCC(=O)N8)C7)c(Cl)n6)c5Cl)c4Cl)nc3Cl)C2)N1 [compound 110]
17,0.297,O=C1CC[C@@H](CNCc2ncc(-c3cccc(-c4cccc(-c5cnc(CNC[C@@H]6CCC(=O)N6)c(Cl)n5)c4Cl)c3Cl)nc2Cl)N1 [compound 111]
18,0.076,COc1nc(-c2cccc(-c3cccc(-c4cnc(CN5CC(O)C5)c(OC)n4)c3Br)c2Br)cnc1CN1CC(O)C1 [compound 112]
